The values that follow come from paper PMC5773487, “Harnessing insulin- and leptin-induced oxidation of PTP1B for therapeutic development” (Nature Communications, 2018).

“Also recorded” adds a separate entry of the source.

For assay [1], the target named is T1, PTP1B-CASA-mut2 (Homo sapiens, UniProt P18031, C215A/K39E/K41R/L37F/S216A).
T1 construct: PTP1B (1–321) and TCPTP (1–317) cloned in pET21b vector were used as templates; made in house; host or cells: E. coli BL21 (DE3)-RIL
T1 sequence (P18031 1-321 L37F/K39E/K41R/C215A/S216A limits assumed): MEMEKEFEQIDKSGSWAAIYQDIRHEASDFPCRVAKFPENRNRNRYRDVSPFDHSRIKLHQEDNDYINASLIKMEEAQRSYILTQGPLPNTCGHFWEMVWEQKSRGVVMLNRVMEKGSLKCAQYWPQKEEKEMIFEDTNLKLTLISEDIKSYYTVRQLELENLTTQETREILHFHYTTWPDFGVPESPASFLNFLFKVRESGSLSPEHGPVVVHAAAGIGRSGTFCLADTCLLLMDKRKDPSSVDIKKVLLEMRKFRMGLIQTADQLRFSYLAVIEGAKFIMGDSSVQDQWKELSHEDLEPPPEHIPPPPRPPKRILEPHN
In words: isothermal titration calorimetry. To be noted: two independent experiments. The format is binding. How it is done:
The studies were performed using a VP-ITC system from GE Healthcare. All titrations were performed at 25°C in de-gassed buffer (50 mM HEPES pH 7.0, 100 mM NaCl, 2 % DMSO, and 1 mM TCEP). The protein concentrations of PTP1B-CASA and PTP1B-CASA-mut2 were each 50 μM. Protein samples used in ITC were dialyzed completely against the buffer. Inhibitor (10 mM) in DMSO was diluted to make a stock solution of 0.2 mM in de-gassed buffer, which was then used as titrant in the syringe. The instrument was calibrated by using the heat of dilution of NaCl in water. […] The heat of ligand dilution was corrected by subtracting the average heat of injection after saturation. Origin software was used to fit and analyze the data.
For orientation: Isothermal titration calorimetry measures the heat released or taken up as one component is titrated into another.

The subject of assay [2] is high fat diet-fed C57Bl6/J mice. In words: body weight, glucose and insulin tolerance tests in diet-fed mice. It is filed as in vivo. Particulars: for glucose tolerance (GTT) / insulin sensitivity (ITT): HFD fed 14-week-old male mice; for glucose tolerance (GTT): D-glucose 2 mg g−1; for insulin sensitivity (ITT): insulin 0.75 mU g−1. How it is done: (§1) Animal experiments were performed according to protocols approved by the Institutional Animal Use and Care Committee of Cold Spring Harbor laboratory. Ten week-old male C57bl6/J mice fed chow diet or high fat diet (D12492) were acclimatized for 10 days under standard conditions before experiments. Mice were intraperitoneally (i.p.) injected once daily with vehicle, 3 mg kg^−1 of chelerythrine or 3 mg kg^−1 of protopine for 30 days. Mice were killed after 6 h of fasting, and serum samples were collected to measure the metabolic parameters and tissue samples were collected for studying changes in signaling. No animals were excluded from the analysis.
Glucose in tail blood was measured using a glucometer (One-Touch Basic; Lifescan, CA). For glucose tolerance tests (GTTs), mice were fasted for 10 h and then injected with 20% D-glucose (2 mg g^−1 body weight) and the blood glucose was monitored immediately before and at 15, 30, 60, and 120 min following the injection. For insulin tolerance tests (ITTs), 4 h fasted animals were given insulin (0.75 mU g^−1) and blood glucose was measured immediately before and at 30, 60, and 120 min post-injection. Statistical analysis was performed using ANOVA for both GTT and ITT.

In assay [3] the test system is insulin signaling in liver, leptin signaling in hypothalamus. The experiment in a line: insulin and leptin signaling in liver and hypothalamus lysates of treated mice. It is filed as in vivo. To be noted: HFD mice. How it is done: Fig. 9 Chelerythrine improved metabolism and promoted insulin and leptin signaling in mice. a Body weight of male mice (C57bl6/J) fed high fat diet and treated with chelerythrine (3 mg kg^−1), protopine (3 mg kg^−1) or saline was monitored from the beginning of the treatment (10 weeks of age) until the study was terminated (14 weeks of age). Data represent the mean ± s.e.m. (n = 10 in each group). b HFD fed 14-week-old male mice treated with saline or chelerythrine were administered D-glucose (2 mg g^−1 body weight), and blood glucose was monitored over the defined time. Data represent the mean ± s.e.m. (n = 10 in each group) and statistical analysis was performed using two-way ANOVA (*p < 0.05, **p < 0.01). c HFD fed 14-week-old male mice treated with saline or chelerythrine were administered insulin (0.75 mU g^−^1 body weight), and blood glucose was monitored over the defined time. Data represent mean ± s.e.m. (n = 10 in each group) and statistical analysis was performed using two-way ANOVA (*p < 0.05). d Representative immunoblots showing insulin-induced tyrosine phosphorylation of IR-β and phosphorylation of AKT, and their corresponding total protein levels, in liver tissue lysates from 14-week-old male mice treated with saline, chelerythrine or protopine. For insulin stimulation, animals were treated with insulin (0.75 mU g^−1, i.p.) for 15 min. e Representative immunoblots showing leptin-induced tyrosine phosphorylation of JAK2 and corresponding total JAK2 levels in the hypothalamus tissue lysates from 14-week-old male mice treated with saline, chelerythrine or protopine. For leptin stimulation, animals were treated with leptin (1 mg kg^−^1, s.c.) for 15 min. All immunoblots are representative of tissue lysates generated from at least three independent animals for each condition (n = 3). Immunoblots were quantified using ImageJ software. Quantitation includes all independent data from the respective experiments and is presented as the mean ± s.e.m. d, e Statistical analysis was performed using two-way ANOVA (*p < 0.05)
as §1

Assay [4] has as its target T2, PTP1B-OX (Homo sapiens, UniProt P18031).
T2 construct: Purified PTP1B (1–321) (100 nM) was mixed with increasing concentrations of H2O2; 6xHis (C); made in house; host or cells: E. coli BL21 (DE3)-RIL
T2 sequence (P18031 1-321): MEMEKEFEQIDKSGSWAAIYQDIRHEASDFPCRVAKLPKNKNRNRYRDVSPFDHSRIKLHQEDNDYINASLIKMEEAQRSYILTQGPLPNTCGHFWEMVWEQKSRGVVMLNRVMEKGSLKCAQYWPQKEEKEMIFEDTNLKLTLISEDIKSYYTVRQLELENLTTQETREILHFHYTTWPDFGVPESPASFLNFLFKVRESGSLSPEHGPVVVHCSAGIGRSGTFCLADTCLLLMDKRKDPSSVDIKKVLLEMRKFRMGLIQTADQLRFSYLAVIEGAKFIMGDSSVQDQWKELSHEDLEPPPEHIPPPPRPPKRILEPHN
The experiment in a line: reduction and reactivation of reversibly oxidized PTP1B by TCEP, DiFMUP substrate. It is filed as biochemical.

The mark [5] stands for this setting: insulin 0.75 mU g−1 i.p. 15 min.

Turning to `COc1ccc2c(c[n+](C)c3c4cc5c(cc4ccc23)OCO5)c1OC` [chelerythrine], the “binding to PTP1B-CASA-mut2 by ITC” value in assay [1] is recorded as “No apparent binding; also recorded: did not detect saturable binding”. In addition, in assay [2], the “glucose tolerance (GTT)” value was “improved” and the “insulin sensitivity (ITT)” value is listed as “improved”. Besides, in assay [2] (chow diet-fed mice, 3 mg kg−1 i.p. once daily), the “change in body weight, chow diet” value is on record as “no significant change”. Also, the “decrease in body weight” value in assay [2] (high fat diet-fed mice, 3 mg kg−1 i.p. once daily) was ~ 3%. Besides, in assay [3] (setting [5]), the “AKT phosphorylation in liver” value is given as “enhanced” and the “IR-β phosphorylation in liver” value was “marked increase”. In assay [3] (leptin 1 mg kg−1 s.c. 15 min), the “phosphorylation of JAK2 in hypothalamus” value is “enhanced phosphorylation of JAK2”. Further, in assay [4] (complex diluted 100-fold, activity monitored 120 min), the “reversibility of PTP1B-OX inhibition” value is recorded as “reversible”.
Regarding `CN1CCc2cc3c(cc2C(=O)Cc2ccc4c(c2C1)OCO4)OCO3` [protopine], the “weight loss in high fat diet-fed mice” value in assay [2] (3 mg kg−1 i.p. once daily, in words) is listed as “not observed”. Further, in assay [2], the “glucose tolerance (GTT)” value is listed as “did not improve” and the “insulin sensitivity (ITT)” value is listed as “did not improve”. Further, in assay [3] (setting [5]), the “IR-β phosphorylation in liver” value was “not observed”.

B1: scFv45: recombinant conformation-sensor single-chain variable fragment antibody recognizing oxidized PTP1B (antibody, V domains shown)
VH: TVTLDESGGGLQAPGGALSLVCKASGFTFSSYDMGWIRQAPGKGLEYVAGITDNGRYASYGSAVDGRATISRDNGQSSVRLQLNNLRAEDTGTYYCARDDGSGWTGNSIDAWGHGTEVIVSE
VL: ALTQPSSVSANPGGTVKITCSGSSSAYGYGWYQQKSPGSAPVTVIYNNNKRPSNIPSRFSGSKSGSTGTLTITGVQAEDEAVYFCGSEDSSTDAIFGAGTTLTVL
One may read the Ki as a measure of affinity in units of concentration, obtained from inhibition or displacement. As for B1, the Ki in assay [4] (intrabodies, phosphatase activity, read-out: Ki against oxidized PTP1B-wt) is 10 nM.
